ChEMBL document CHEMBL1137324, “Novel selective orally active CRTH2 antagonists for allergic inflammation developed from in silico derived hits” (J Med Chem, 2006)

Columns and labels:
[1] = molecular target: T1, Prostaglandin D2 receptor 2 (Homo sapiens, UniProt Q9Y5Y4); test: Displacement of [3H]PGD2 from human CRTH2 receptor expressed in HEK293 cells; type: cell-based
T1 sequence (Q9Y5Y4 whole entry): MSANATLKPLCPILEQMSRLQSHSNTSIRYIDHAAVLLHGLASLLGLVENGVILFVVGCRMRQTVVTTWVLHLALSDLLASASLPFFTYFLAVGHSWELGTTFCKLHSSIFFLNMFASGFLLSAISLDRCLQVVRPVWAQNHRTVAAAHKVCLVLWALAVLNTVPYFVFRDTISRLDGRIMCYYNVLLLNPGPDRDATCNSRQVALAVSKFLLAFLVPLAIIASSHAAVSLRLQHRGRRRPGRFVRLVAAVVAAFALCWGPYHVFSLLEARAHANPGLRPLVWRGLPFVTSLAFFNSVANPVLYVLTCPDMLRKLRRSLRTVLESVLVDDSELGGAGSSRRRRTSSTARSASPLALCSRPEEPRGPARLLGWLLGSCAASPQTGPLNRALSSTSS

[2] = molecular target: T1, Prostaglandin D2 receptor 2; test: Antagonist activity against CRTH2 receptor measured as inhibition of PGD2-induced beta-arrestin translocation in HEK293 cells by BRET assay; type: functional, cell-based
[3] = tested on: Mus musculus; test: Inhibition of peribronchial eosinophilia in BALB/c mouse at 100 mg/kg, po relative to control; type: functional

O=C(O)COc1ccc(Br)cc1C(=O)c1cnn(-c2ccccc2Br)c1
IC50 [1]: 1.9 nM
IC50 [2]: 12 nM

O=C(O)COc1ccc(Br)cc1CO
IC50 [1]: 886 nM
IC50 [2]: 6870 nM

O=C(O)COc1ccc(Br)cc1/C=N/Nc1nncc(-c2ccccc2)n1
IC50 [1]: 89 nM
IC50 [2]: 3210 nM

CC(=O)c1cc(Br)ccc1OCC(=O)O
IC50 [1]: 510 nM
IC50 [2]: 4520 nM

O=C(O)COc1ccc([N+](=O)[O-])cc1C(=O)c1cnn(-c2ccccc2)c1
IC50 [1]: 47 nM
IC50 [2]: 236 nM

O=C(O)COc1ccc(Br)cc1/C=N/Nc1ccccn1
IC50 [1]: 255 nM
IC50 [2]: 3490 nM

O=C(O)COc1ccc(-c2ccccc2)cc1C(=O)c1cnn(-c2ccccc2)c1
IC50 [1]: 42 nM
IC50 [2]: 485 nM

O=C(O)COc1ccc(-c2cc(F)cc(F)c2)cc1C(=O)c1cnn(-c2ccccc2)c1
IC50 [1]: 13 nM
IC50 [2]: 147 nM

O=C(O)COc1ccc(Br)cc1C(=O)c1cnn(-c2ccc(Cl)cc2)c1
IC50 [1]: 1.5 nM
IC50 [2]: 17 nM

O=C(O)COc1ccccc1/C=N/NC(=O)Cn1cnc2ccccc21
IC50 [1]: 12800 nM
IC50 [2]: 81700 nM

O=C(O)COc1ccc(Br)cc1/C=N/Nc1cccc2cccnc12
IC50 [1]: 54 nM
IC50 [2]: 643 nM

CC(C)(C)c1cc(Br)ccc1OCC(=O)O
IC50 [1]: 61 nM
IC50 [2]: 423 nM

O=C(O)COc1ccccc1/C=N/NC(=O)COc1ccc(Cl)cc1Cl
IC50 [1]: 555 nM
IC50 [2]: 6320 nM

O=Cc1cc(Br)ccc1OCC(=O)O
IC50 [1]: 124 nM
IC50 [2]: 481 nM

COc1ccc(-n2cc(C(=O)c3cc(Br)ccc3OCC(=O)O)cn2)cc1
IC50 [1]: 3.6 nM
IC50 [2]: 53 nM

CCOC(=O)COc1ccc(Br)cc1C(=O)c1cnn(-c2ccccc2)c1
IC50 [1]: 165 nM
IC50 [2]: 3000 nM

COc1ccc(OCC(=O)O)c(C(=O)c2cnn(-c3ccccc3)c2)c1
IC50 [1]: 151 nM
IC50 [2]: 4200 nM

O=C(O)COc1ccccc1C(=O)c1cnn(-c2ccccc2)c1
IC50 [1]: 510 nM
IC50 [2]: 5350 nM

Cc1ccc(OCC(=O)O)c(C(=O)c2cnn(-c3ccccc3)c2)c1
IC50 [1]: 48 nM
IC50 [2]: 587 nM

O=C(O)COc1ccc(-c2ccc(Cl)cc2)cc1C(=O)c1cnn(-c2ccccc2)c1
IC50 [1]: 37 nM
IC50 [2]: 448 nM

COc1ccc(-c2cnnc(N/N=C/c3ccccc3OCC(=O)O)n2)cc1
IC50 [1]: 1580 nM
IC50 [2]: > 100000 nM

C[C@]12CCC(=O)C=C1CC[C@@H]1[C@@H]2[C@@H](O)C[C@@]2(C)[C@H]1CC[C@]2(O)C(=O)CO [HYDROCORTISONE]
inhibition in vivo at 100 mg/kg [3]: 94%

Cc1cc(C(=O)N/N=C/c2ccccc2OCC(=O)O)[nH]n1
IC50 [1]: 11200 nM
IC50 [2]: > 100000 nM

O=C(O)COc1ccc(Cl)cc1C(=O)c1cnn(-c2ccccc2)c1
IC50 [1]: 15 nM
IC50 [2]: 185 nM

O=C(O)COc1ccc(F)cc1C(=O)c1cnn(-c2ccccc2)c1
IC50 [1]: 108 nM
IC50 [2]: 1320 nM

O=C(O)COc1ccc(Br)cc1C(=O)c1cnn(-c2ccc(Br)cc2)c1
IC50 [1]: 1.4 nM
IC50 [2]: 13 nM

O=Cc1ccccc1OCC(=O)O
IC50 [1]: 1970 nM
IC50 [2]: 50000 nM

O=C(O)COc1ccc(Br)cc1C(=O)c1ccno1
IC50 [1]: 391 nM
IC50 [2]: 2650 nM

Cc1ccc(NCC(=O)N/N=C/c2ccccc2OCC(=O)O)cc1
IC50 [1]: 3660 nM
IC50 [2]: 60200 nM

O=C(O)COc1ccc(Br)cc1C(=O)c1ccccc1
IC50 [1]: 53 nM
IC50 [2]: 437 nM

O=C(O)COc1ccc(Br)cc1C(=O)c1cnn(-c2cccc(Br)c2)c1
IC50 [1]: 3.4 nM
IC50 [2]: 31 nM
